Patent US20230365616A1, “CHOLESTANE DERIVATIVES, PREPARATIONS CONTAINING THESE DERIVATIVES AND USE THEREOF” (UNIVERZITA PALACKEHO V OLOMOUCI, priority 2020, published 2023)

Columns and labels:
[1] = system: human neuron-like SH-SY5Y cells; assay: Neuroprotective effect on glutamate-induced oxidative damage, cell death by propidium iodide staining; type: cell-based; settings: for Neuroprotective effect (% of control): co-treatment with 160 mM Glu for 24 h, difference between 160 mM Glu and co-treatment group means; for Neuroprotective effect compared with positive controls (R-LA, DFO): 160 mM Glu, 24 h
Procedure: Similarly, to the previous test the assay was performed in 96-well microplates with 20000 cells per well. Day after the seeding of cells, SH-SYSY underwent all-trans retinoic acid (ATRA)-differentiation for 48 h (ATRA 10 μM). […] […] After 24 h the cell death was quantified by propidium iodide staining according to literature (Stone et al. BMC Cell Biol. 2003, 4, 1) with modifications. In general, PI staining is associated with damaged cell membrane or presence of dying cells (Stone et al. BMC Cell Biol. 2003, 4, 1). Due to the loss of adherence, damaged or death cells were stained by PI solution directly in media at 1.5 μM final concentration and incubated at room temperature for 15-25 minutes at room temperature. PI stained cells were quantified at 535/617 nm (excitation/emission) by Infinite M200 Pro (Tecan) microplate reader. Cell death generated by 160 mM Glu was consider as 100% of cell death so that reduction in cell death (neuroprotective effect) was observed.

[2] = system: SH-SY5Y human neuroblastoma cell line (neuron-like phenotype); assay: Calcein AM viability test on ATRA-differentiated neuron-like SH-SY5Y cells; type: cell-based; settings: 24 hours of treatment, mean of two independent experiments
Procedure: (§1) The SH-SY5Y human neuroblastoma cell line obtained purchased from ECACC (The European Collection of Authenticated Cell Cultures) was cultivated in Dulbecco's modified Eagle's Medium and Ham's F12 Nutrient Mixture (DMEM:F-12, 1:1), supplemented with 10% fetal bovine serum (FBS) and 1% penicillin and streptomycin at 37° C. in a humidified atmosphere 5% CO2, 95% air in passage limit up to ECACC+20. The assay was performed in 96-well microplate with 7000 SH-SY5Y cells per well. Next day, SH-SY5Y underwent all-trans retinoic acid (ATRA)-differentiation for 48 h (ATRA 10 μM). After 48 h, old DMEM/F12 media was removed by fresh media containing tested compounds at 0.1, 1 and 10 μM concentrations for 24 h. The tested compounds were dissolved in DMSO were added into the medium. The maximum concentration of DMSO in media was kept below 0.1% (v/v). The cell viability was measured by Calcein AM (1 mg/ml ThermoFisher) viability assay. Solution of Calcein AM in PBS (0.75 μM) was pipetted to cells and incubated for 50 minutes. After that the fluorescence was measured at 488/517 nm (excitation/emission) using microplate reader Infinite M200 (TECAN). Calcein AM assay is based on the dye-intracellular-esterase cleavage of non-fluorescent dye (Calcein AM) by living cells to fluorescent dye (Calcein), while dyeing cells that lose such ability. The values in Table 4 show % of viability, relative to control of all tested compounds. The control (medium with DMSO, <0.1% (v/v)) was postulated as 100% viability (see the first line of the table).

[3] = system: neuron-like SH-SY5Y cells; assay: Glutamate-induced oxidative stress, superoxide radical formation by dihydroethidium staining; type: cell-based, human; settings: 4 hour co-treatment with 160 mM Glu, percentages of 160 mM Glu control, mean of three independent experiments
Procedure: Similarly as shown in previous assay, cells grew on 96 multiwell plates at density 20000 cells per well underwent differentiation and treatment procedure for glutamate model. After 4 hour co-treatment with glutamate superoxide radical's formation as marker of oxidative stress was quantified by dihydroethidium according to Kim et al. 2017, J. Med. Food, 20, 140-151 with modifications. Briefly, neuron-like SH-SYSY cells were centrifuged at 500 g for 5 minutes and 30 seconds, then media were replaced by 10 μM DHE PBS solution and kept at room temperature for 30 minutes. After 30 minutes, DHE was read at 500 nm/580 nm (excitation/emission) by Infinite M200 Pro (Tecan) microplate reader. DHE is cell permeable dye which is selective toward superoxide radical detection. Overall oxidative stress achieved by 160 mM Glu was consider as 100% so that the reduction in oxidative stress (OS reducing effect) was observed. As shown in Table 6 and FIG. 2, 160 mM Glu induced 2.6 fold increase in superoxide radical's formation.

[4] = Calcein AM viability test on ATRA-differentiated neuron-like SH-SY5Y cells; type: cell-based; settings: human, ATRA-differentiated neuron-like SH-SY5Y neuroblastoma cells, 24 hours of treatment, mean of two independent experiments, read-out: Viability (% of DMSO control)
[5] = as above; type: cell-based, human; settings: human, ATRA-differentiated neuron-like SH-SY5Y neuroblastoma cells; 1 μM, 24 hours of treatment, mean of two independent experiments; read-out: Viability (% of DMSO control)
Procedure: as §1

Structure (SMILES): CC[C@@H](C)[C@H]1CC[C@H]2[C@@H]3CC(=O)[C@H]4C[C@H](O)[C@H](O)C[C@]4(C)[C@H]3CC[C@]12C [Compound 6]
- Neuroprotective effect (% of control) ([1]; 1 μM): 15.00 % of control
- Neuroprotective effect compared with positive controls (R-LA, DFO) ([1]; 10 μM): double neuroprotective effect than R-LA
- Neuroprotective effect (% of control) ([1]; 10 μM): 33.70 % of control
- Viability (% of DMSO control) ([2]; 0.1 μM): 101.30 % of DMSO control
- Viability (% of DMSO control) ([2]; 1 μM): 104.80 % of DMSO control
- Viability (% of DMSO control) ([2]; 10 μM): 122.10 % of DMSO control
- Superoxide radical formation (% of 160 mM glutamate control) ([3]; 1 μM): 85.36%
- Superoxide radical formation (% of 160 mM glutamate control) ([3]; 10 μM): 80.19%

Structure (SMILES): CCC[C@@H](C)[C@H]1CC[C@H]2[C@@H]3CC(=O)[C@H]4C[C@H](O)[C@H](O)C[C@]4(C)[C@H]3CC[C@]12C [Compound 15]
- Neuroprotective effect compared with positive controls (R-LA, DFO) ([1]; 10 μM): double neuroprotective effect than R-LA
- Neuroprotective effect (% of control) ([1]; 10 μM): 30.08 % of control
- Viability (% of DMSO control) ([2]; 0.1 μM): 98.20 % of DMSO control
- Viability (% of DMSO control) ([2]; 1 μM): 106.40 % of DMSO control
- Viability (% of DMSO control) ([2]; 10 μM): 120.60 % of DMSO control
- Superoxide radical formation (% of 160 mM glutamate control) ([3]; 1 μM): 98.27%
- Superoxide radical formation (% of 160 mM glutamate control) ([3]; 10 μM): 85.61%

Structure (SMILES): CCCC[C@@H](C)[C@H]1CC[C@H]2[C@@H]3CC(=O)[C@H]4C[C@H](O)[C@H](O)C[C@]4(C)[C@H]3CC[C@]12C [Compound 30]
- Neuroprotective effect (% of control) ([1]; 10 μM): 23.17 % of control
- Viability (% of DMSO control) ([2]; 0.1 μM): 99.41 % of DMSO control
- Viability (% of DMSO control) ([2]; 1 μM): 102.30 % of DMSO control
- Viability (% of DMSO control) ([2]; 10 μM): 104.70 % of DMSO control
- Superoxide radical formation (% of 160 mM glutamate control) ([3]; 1 μM): 84.54%
- Superoxide radical formation (% of 160 mM glutamate control) ([3]; 10 μM): 81.08%

Structure (SMILES): CCCCC[C@@H](C)[C@H]1CC[C@H]2[C@@H]3CC(=O)[C@H]4C[C@H](O)[C@H](O)C[C@]4(C)[C@H]3CC[C@]12C [Compound 57]
- Neuroprotective effect (% of control) ([1]; 1 μM): 15.99 % of control
- Neuroprotective effect (% of control) ([1]; 10 μM): 24.88 % of control
- Viability (% of DMSO control) ([2]; 0.1 μM): 105.90 % of DMSO control
- Viability (% of DMSO control) ([2]; 1 μM): 108.90 % of DMSO control
- Viability (% of DMSO control) ([2]; 10 μM): 117.10 % of DMSO control
- Superoxide radical formation (% of 160 mM glutamate control) ([3]; 1 μM): 93.34%
- Superoxide radical formation (% of 160 mM glutamate control) ([3]; 10 μM): 83.99%

Structure (SMILES): CC(C)CCC[C@@H](C)[C@H]1CC[C@H]2[C@@H]3CC(=O)[C@H]4C[C@H](O)[C@H](O)C[C@]4(C)[C@H]3CC[C@]12C [Compound 111]
- Neuroprotective effect (% of control) ([1]; 10 μM): 26.52 % of control
- Viability (% of DMSO control) ([2]; 0.1 μM): 106.90 % of DMSO control
- Viability (% of DMSO control) ([2]; 1 μM): 107.80 % of DMSO control
- Viability (% of DMSO control) ([2]; 10 μM): 109.90 % of DMSO control
- Superoxide radical formation (% of 160 mM glutamate control) ([3]; 1 μM): 89.17%
- Superoxide radical formation (% of 160 mM glutamate control) ([3]; 10 μM): 80.21%

Structure (SMILES): CC(=O)N(O)CCCCCNC(=O)CCC(=O)N(O)CCCCCNC(=O)CCC(=O)N(O)CCCCCN [DFO, deferoxamine, reference compound]
- Neuroprotective effect (% of control) ([1]; 10 μM): 19.94 % of control
- Neuroprotective effect (% of control) ([1]; 100 μM): 23.55 % of control
- viability at 24 h, 5 µM ([4]; 5 μM): 106%
- viability at 24 h, 50 µM ([4]; 50 μM): 110%
- viability at 24 h, 1 µM [5]: 106%
- Superoxide radical formation (% of 160 mM glutamate control) ([3]; 10 μM): 87.06%
- Superoxide radical formation (% of 160 mM glutamate control) ([3]; 100 μM): 92.61%

Structure (SMILES): O=C(O)CCCC[C@@H]1CCSS1 [R-LA, R-lipoic acid, reference compound]
- Neuroprotective effect (% of control) ([1]; 50 μM): 13.49 % of control
- Superoxide radical formation (% of 160 mM glutamate control) ([3]; 5 μM): 86.72%
- Superoxide radical formation (% of 160 mM glutamate control) ([3]; 50 μM): 83.91%
